From ChEMBL document CHEMBL3045598, “Utilization of nicotinonitrile-2-thiol in the synthesis of new thiepino[2,3-b]pyridine derivative as an in vitro novel antitumor potent” (Med Chem Res, 2013) come the findings set out here.

Calls of active or inactive are those of the source. The rule behind the calls is not given here.

The experiment deals with Ehrlich. Briefly: Cytotoxicity against Mus musculus (mouse) EAC cells assessed as decrease in cell viability at 50 ug/ml by trypan blue exclusion assay. Type of experiment: functional, cell-based.
`CCOC(=O)C1CCSc2nc(C)cc(C)c2C1=O` (stereo not drawn): the outcome was Active.
Consider `Cc1cc2n(c(=S)c1C#N)CCCC(=O)C2`, for which the result was Active.
Next, `CCOC(=O)CCCSc1nc(C)cc(C)c1C#N`: “Active”.
